Test results published in PubChem BioAssay AID179 (DTP/NCI, 2004).
Calls of active or inactive are those of the source.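 Rule for the calls: active = compounds giving half or more protection of infected cells from virus-caused growth loss, again on retest; inactive = the rest.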

System: CEM cells HIV-1 protection, formazan growth assay
Experiment: NCI AIDS Antiviral Assay
Conditions: for IC50: measured here: growth of uninfected CEM cells
How it was run: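 Steps: treat uninfected and HIV-1-infected human CEM cells at five drug levels; quantify growth by soluble formazan; retest any compound reaching 50% protection; classify actives from the retest.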

SMILES	EC50 [µM]	IC50 [µM]	outcome
CCCCN1C(=O)[C@](O)(NC(C)=O)[C@H]1COC(C)(C)C	> 43.7	> 43.7	
CCOC(=O)Cc1nc2cc(F)c(F)cc2[nH]c1=O	> 200	> 200	
Nc1nc(Cl)cc(Oc2ccc(Cl)cc2)n1	> 200	> 200	
CCCCCCCCCCCCSSC(=S)OC(C)C	> 200	> 200	
Cc1nn(C(=O)c2ccccc2O)c2c1C(c1ccccc1O)SC(N)=N2 (stereo not given)	> 2	0.933	
COc1ccc(-c2c(C3=NCCN3)nnn2-c2ccccc2)cc1	> 295	> 295	
COc1cc(COC(=O)N2CC=CC2C(=O)O)c([N+](=O)[O-])cc1OC (stereo not given)	> 708	> 708	
Nc1ccc(C(=O)N/C(=C\c2ccc3c(c2)OCO3)c2nc3[nH]c(=S)[nH]c(=O)c3[nH]2)cc1			inactive
CCN(CC)C(c1ccc(N(C)C)cc1)C(c1ccc(N(C)C)cc1)N(CC)CC (stereo not given)	> 158	42.7	
CC(C)(C)c1cc2c(O)c(c1)C(c1ccccc1)c1cc(C(C)(C)C)cc(c1O)Cc1cc(C(C)(C)C)cc(c1O)C(c1ccccc1)c1cc(C(C)(C)C)cc(c1O)C2 (stereo not given)	> 50.1	> 50.1	
COc1ccccc1-n1c(C)nc2ccccc2c1=O	> 186	> 186	
CCN(CC)CCOc1ccccc1/C=C/c1noc2ccccc12	> 200	29.5	
C1=C(c2ccccc2)SC(N2CCCCC2)S1 (stereo not given)			inactive
Cc1cn(C2CC(N=C(N)NO)C(CO)O2)c(=O)[nH]c1=O (stereo not given)	> 5250	708	
COc1c(Cl)nc2ccccc2c1N=[N+]=[N-]	> 200	135	
CCOC(=O)C1=C(C)N2CCOC2(C)C(C(=O)OC)C1c1cccc(Cl)c1 (stereo not given)	> 66.1	> 66.1	
c1ccc(-c2csc3[n+]2CCN3)cc1	> 200	126	
CC(C(=O)O)N(N=O)c1ccccc1 (stereo not given)	> 676	> 676	
COC(=O)C1CC(C=[N+](C)C)=C(SC)N1C(=O)OCc1ccccc1 (stereo not given)	> 200	191	
CC(=O)NCCSSCCCCS(=O)O	> 200	3.16	
S=c1[nH]c(=S)c2cc(Sc3ccc4[nH]c(=S)[nH]c(=S)c4c3)ccc2[nH]1	> 200	> 200	

SMILES	EC50 [µM]	IC50 [µM]	outcome
COc1cc2c(c(OC)c1OC)C1CCCCC1SCC2=O (stereo not given)	> 155	> 155	
Cc1ccc(C)c(NC(=O)CCc2n[nH]c(=S)o2)c1	> 9.33	> 9.33	
CC(Cl)(/C=C/Cl)C(Cl)/C=C/C(Cl)(CCl)CBr (stereo not given)			inactive
CC(=O)OC1C(=O)C(O)C(C)OC1O[C@@H]1C[C@@]2(C)[C@@H]3CC=C4[C@@H](C[C@H](O)C(=O)C4(C)C)[C@]3(C)C(=O)C[C@]2(C)[C@H]1[C@@](C)(O)C(=O)/C=C/C(C)(C)O (stereo not given in full)	> 0.501	0.0832	
O=C(Nc1ccc(Sc2ccc(N=Nc3c(O)c(S(=O)(=O)O)cc4cc(S(=O)(=O)O)ccc34)cc2)cc1)c1ccc(N=Nc2cc(S(=O)(=O)O)c3ccccc3c2O)cc1			inactive
COc1ccc(N2C(=O)C(=O)C3(CCCCC3)C2=O)c(OC)c1OC	> 200	> 200	
CSc1nc(C(N)=O)c(N)c(=O)[nH]1	> 468	126	
O=C(CCN1CCCCC1CCO)Nc1ccc2c(c1)C(=O)c1ccc(NC(=O)CCN3CCCCC3CCO)cc1C2=O (stereo not given)	> 200	2.63	
CN(CC#N)[C@H]1CCC[C@]1(O)/C=C/[Si](C)(C)C	> 28.8	> 28.8	
OCCN(CC(O)C(O)CN(CCO)C(=S)S)C(=S)S (stereo not given)	> 58.9	> 58.9	
Cc1ccc(N(C)S(=O)(=O)c2ccccc2[N+](=O)[O-])cc1	10.7	36.3	
O=[N+]([O-])c1ccc(OP(=O)(Oc2ccc([N+](=O)[O-])cc2)OP(=O)(Oc2ccc([N+](=O)[O-])cc2)Oc2ccc([N+](=O)[O-])cc2)cc1	> 200	50.1	
O=c1cc(-c2ccccc2)oc2cc(O)cc(O)c12	> 87.1	38	
O=c1cc(CCc2ccccc2)oc2c(O)ccc(O)c12			inactive
CC(=O)OC(C)(C)CCC(=O)[C@](C)(O)[C@H]1[C@H](O)C[C@@]2(C)[C@@H]3CC=C4C(C)=C(OC5OC(CO)C(O)C(O)C5O)C(=O)C[C@@H]4[C@]3(C)C(=O)C[C@]12C (stereo not given in full)	> 200	> 200	
O=C1CC(=O)NC(=NN2C(=O)/C(=C/c3ccc(Cl)cc3)N=C2c2ccccc2)N1	> 200	32.4	
CCCC(=O)OCc1cc(=O)n(C)c2c3c4c(cc12)c(C)cc(=O)n4CO3	> 174	6.76	
Cc1cc(N(CCC#N)CCC#N)ccc1CC1N=C(c2ccccc2)OC1=O (stereo not given)	> 93.3	> 93.3	
C=C1C(=O)OC2CC(C)C3CC(OC)OC(OC)C3(C)CC12 (stereo not given)	> 589	3.72	
O=c1c2cccc3cccc(c4n1CCCN=4)c32	> 200	17	
C[N+]12CCC34c5ccccc5NC3C3C(CC(=O)[O-])OCC=C(C1)C3CC42 (stereo not given)			inactive

SMILES	EC50 [µM]	IC50 [µM]	outcome
COc1cc2c(c(OC)c1OC)-c1ccc(=O)c(OC)cc1C(NC(C)=O)CC2 (stereo not given)			inactive
CC(C)OC(=O)C1(C(C)C)CCc2ccc(C(=O)CCC(=O)O)cc21 (stereo not given)	> 200	178	
Cn1c(/C=C(\O)c2ccccc2)nc2ccccc21	> 105	83.2	
CCOC(=O)/C(C#N)=C1\SS/C(=C(/C#N)C(=O)OCC)S1	> 200	19.5	
COc1ccc(C2ON(c3ccccn3)CC=C2C)cc1 (stereo not given)	> 91.2	83.2	
CC(C)NC(=O)OCc1c(COC(=O)NC(C)C)n(C)c2c1ccc1sccc12	> 200	2.14	
NC(Cc1ccc(S(=O)(=O)O)cc1)C(=O)NC(Cc1ccc(S(=O)(=O)O)cc1)C(=O)NC(Cc1ccc(S(=O)(=O)O)cc1)C(=O)NC(Cc1ccc(S(=O)(=O)O)cc1)C(=O)O (stereo not given)	> 200	> 200	
COc1cc(C2c3cc4c(cc3OC(NNc3ccccc3)C2C)OCO4)cc(OC)c1OC (stereo not given)	> 200	3.89	
OCC1OC(n2ccc3c2ncn2cnnc32)C(O)C1O (stereo not given)	> 309	29.5	
CN1C(=O)N(C)C2(CCN(CC(CC3OCCO3)c3ccc(F)cc3)CC2)C1=O (stereo not given)	> 200	> 200	
CCN(CC)CCCCCCNc1cc(C)cc2cccnc12	> 200	20.9	
NC(=O)c1coc(C2OC(CO)C(O)C2O)n1 (stereo not given)	> 1020	> 1020	
O=C1C=Cc2ccccc2/C1=C/c1nc(-c2ccccc2)oc1O	> 100	58.9	
CN(C)CCNC(=O)c1cc([N+](=O)[O-])cc2c1Oc1ccccc1O2	> 200	10.5	
COC(=O)CCc1ccc2c(c1)CC1(C2)Cc2ccc(CCC(=O)OC)cc2C1	> 200	57.5	
O=C(O)CC1CCN(C(=O)c2ccccc2)C(Cc2c[nH]c3ccccc23)C1O (stereo not given)	> 126	> 126	
CC(=O)N1C(C(=O)NN2CCOCC2)CSC1c1ccccc1 (stereo not given)	> 200	> 200	
CCOC1OC(CO[Si](C)(C)C(C)(C)C)C(O)CC1n1ccc(=O)[nH]c1=O (stereo not given)	> 200	31.6	
N#Cc1c(-c2ccc(Cl)c(Cl)c2)c(-c2ccc(Cl)c(Cl)c2)nn(CC(=O)O)c1=O	> 200	55	
Cc1nc2cc([N+](=O)[O-])ccc2c(NCCCN(C)C)c1C	> 200	3.55	
Cc1nc2ccc(Br)cc2c(=O)n1-c1ccc(N)cc1	> 200	> 200	

SMILES	EC50 [µM]	IC50 [µM]	outcome
O=C1/C(=C/c2cccs2)NC(=S)N1CN1CCCC(CO)C1 (stereo not given)	> 200	44.7	
CN(C)C1C(=O)C(C(=O)NCNC(C=O)C(O)C(O)C(O)CO)=C(O)C2(O)C(=O)C3=C(O)c4c(O)cccc4C(C)(O)C3CC12 (stereo not given)	> 178	110	
COc1cc(C[C@H]2c3cc(OC)c(OC)cc3CCN2C)c(Oc2cc3c(cc2OC)-c2c(OC)c(OC)cc4c2[C@H](C3)N(C)CC4)cc1OC			inactive
Nn1c(=O)[nH]c2ncn(Cc3ccccc3)c2c1=O	> 200	> 200	
CCOC(=O)C(Cc1c(C=O)[nH]c2ccccc12)(NC(=O)c1ccccc1)C(=O)OCC			inactive
CN(C)CCCN=c1c2ccccc2n(O)c2ccccc12	> 200	8.13	
CCOC(=O)Cc1csc2[n+]1C(=O)/C(=C/c1cccc(OC)c1O)S2	> 200	174	
O=c1ccn([C@@H]2C[C@H]2CO)c(=O)[nH]1			inactive
CC1(C(=O)Nc2ccc3cc4ccccc4cc3c2)CC2(C)CC(C)(C1)C(O)NC2=O (stereo not given)			inactive
Cc1cc(=O)oc2cc(OCC(O)COC(C)C)ccc12 (stereo not given)	> 200	129	
CC1=C2C(c3ccccc3)(c3ccccc3)C3C=CC2(C=N3)N(C(=O)NC2CCCCC2)C1=O (stereo not given)	> 11.5	> 11.5	
CC1=Nc2ccccc2N=C(C)C1	> 200	> 200	
CN(C)CCn1cnc2ncccc2c1=O			inactive
COc1cccc(C2SCC(=O)N2c2ccc(-c3ccc(-n4c(-c5ccccc5)nc5ccccc5c4=O)cc3)cc2)c1OC (stereo not given)	> 200	63.1	
C=C(C)[C@@H]1CC[C@]2(COC(=O)CC(C)(CC)CC(=O)O)CC[C@]3(C)[C@H](CC[C@@H]4[C@@]5(C)CC[C@H](OC(=O)CC(C)(CC)CC(=O)O)C(C)(C)[C@@H]5CC[C@]43C)[C@@H]12 (stereo not given in full)	> 200	9.55	
CC(C)=C[C@@H]1C[C@H](C)c2c(O)cc(C)c3c2C1=C(C)C(=O)C3=O	> 200	22.4	
C[N+]1(C)N=C(c2ccccc2)C=C1[O-]	> 200	> 200	
[O-][n+]1c2ccccc2[n+]([O-])c2c3ccccc3[nH]c21	> 20.9	> 20.9	
NS(=O)(=O)c1ccc(NC(=O)Nc2ccc(F)cc2)cc1	> 200	74.1	
OCCN1CCN(C2=Nc3cccnc3Nc3cscc32)CC1	> 200	> 200	
Cc1ccc(S(=O)(=O)SCc2ccccc2CSS(=O)(=O)c2ccc(C)cc2)cc1			inactive
